Source: US20250101338A1, “BIOMASS DERIVED SURFACE-ACTIVE COMPOSITIONS AND PRODUCTS” (Cambridge Glycoscience Ltd, priority 2021, published 2025)

Key:
[1] = Lipophilic substances solubilization test, lemongrass oil (Example 71); assay type: physicochemical; conditions: 2 mL of 5 wt % aqueous solution, stepwise addition of 2.5 μL, duplicate
Method: After each addition, the sample was agitated with a vortex mixture for 60 s and left to stand for 5 min. If no heterogenous phase was observed visually, the oil was said to be fully soluble. If a heterogenous, immiscible biphasic or emulsion was visible, then the saturation limit for that surface-active component was said to have been exceeded. Each surface-active composition was tested in duplicate.

Zein = Zein solubilization test, irritation potential (Example 68); conditions: 25 mg zein in 1 mL of 1 wt % active surfactant solution, 30 min, BCA assay, triplicate
Method: Zein is a water-insoluble corn protein, structurally similar to keratin. The ability of a surfactant to solubilize zein is related to irritation potential. The more zein solubilized, the more irritating the product is deemed to be, according to this test. […] The solutions were centrifuged, and the protein concentration in the supernatant determined by BCA assay. Each surfactant was tested in triplicate. Protein content was determined from a bovine serum albumin (BSA) standard curve.

[2] = Lipophilic substances solubilization test, preservative P12 (Example 72); assay type: physicochemical; conditions: 2 mL of 5 wt % aqueous solution, stepwise addition of 10 μL, duplicate
Method: After each addition, the sample was agitated with a vortex mixture for 60 s and left to stand for 5 min. If no heterogenous phase was observed visually, the oil was said to be fully soluble. If a heterogenous phase or emulsion was visible, then the saturation limit for that surface-active component was said to have been exceeded. Each surface-active composition was tested in duplicate.

[3] = Water in oil emulsion stability test (Example 65); assay type: physicochemical; conditions: 0.5 mL water with 2 wt % substance + 1.5 mL sunflower oil, vortex 30 s, visual inspection
Method: 0.5 mL deionized water containing 2 wt % of the stated inventive or comparative compound was added to 1.5 mL commercial, food-grade sunflower oil, in a sample vial. The vials were each agitated with a IKA Vortex mixture for 30 seconds. The vials were left to stand and inspected visually for emulsion quality after 5 minutes, 1 hour, 4 hours and finally 24 h (FIG. 14 and FIG. 15). […] The results also show an unexpected increase in emulsifying performance for the inventive compositions comprising oligosaccharide mixture-derived surface-active agents (such as example 4-6 compositions) compared with those derived from a single monomeric sugar (xylose) alone (such as example 12 and 13 compositions).

[4] = Flash foam generation test (Example 70); assay type: physicochemical; conditions: 20 mg in 4 mL deionized water (10 wt % [sic]), 2 mL shaken 30 s in 15 mL tube, duplicate average
Method: 20 mg of each surface-active composition for testing was dissolved in deionized water (4 mL) to give a 10 wt % solution, 2 mL was added to a 15 mL FALCON tube. Each falcon tube was secured in a holder before being vigorously shook for 30 seconds. The initial foam height and structure was noted. The foam height was then noted at 5 min, 10 min, 15 min, 30 min, 45 min, 1 hr and 2 hr after the initial measurement. The experiment was repeated in duplicate. Averaged results are depicted in table 5 and FIG. 11.

[5] = Dynamic foam tests (Example 69); assay type: physicochemical; conditions: 5 mL of 0.5 wt % aqueous solution, 40 cm^3 air bubbled at 17 cm^3/min
Method: The intensity and approximate decay-rate for the foaming behavior of the surface-active compositions in dilute aqueous solution was determined by dosing 5 mL of 0.5 wt % aqueous solution of surface-active composition to a vertically-aligned 50 m plastic serological pipette (“Stripette”). Air (40 cm^3) was bubbled through the surface-active composition solution at a rate of 17 cm^3/min via a syringe pump and the foam height upon complete addition of air recorded. The foam height was also recorded again 5 min after complete addition of air, 10 min after complete addition of air, 15 m after complete addition of air, 30 min after complete addition of air, 1 hour after complete addition of air and finally 2 hours after complete addition of air.

[6] = Relative viscosity, gravity flow time (Example 74); assay type: physicochemical; conditions: 10 mL of 10 wt % sodium dodecyl sulfate + 0.3 g NaCl + 0.655 mL of 30 wt % test solution, 27° C., triplicate
Method: The time taken for precisely 3 mL of testing mixture to pass out of the […] by gravity was recorded. The test was repeated in triplicate. Averaged results are depicted in FIG. 20 and table 9. It was unexpected that example 11 composition recorded such high viscosity over example 14 composition, which differs by a slightly smaller alkyl chain (octyl instead of decyl).

[7] = Aqueous solubility noted at preparation; assay type: physicochemical; conditions: water, room temperature
Method: Solid N-decyl xylosylamine (7.6 g) was suspended in 2-propanol (60 mL) and triethylamine (2 equiv.) then acetic anhydride (1.6 equiv.) was added slowly. Stirring continued at ambient temperature for 10 h. Water (50 mL) was added, and the mixture stirred for 5 min. Dichloromethane (50 mL) was added and the phases separated. The aqueous phase was extracted with additional DCM. The combined organic phase washed with saturated aqueous NH4Cl solution, then the aqueous phase extracted with additional DCM. The combined organic phases were dried over anhydrous magnesium sulfate, filtered, then concentrated under reduced pressure to give a yellow oil. The oil was purified by FCC eluting with MeOH (2-15%) in DCM (120 g normal phase silica cartridge with wet loading). Fractions containing the product were combined and evaporated to dryness to give the desired product (4.1 g, 49%) as a yellow gum. LC-MS (Method A), Rt=1.69 min, [M+H]+=332.2. The gum product can be dissolved in water to form solutions of 50 wt % or greater.
The process was carried out in essentially the same manner as in Example 11 a) step (ii) but using the solid product of Example 11 reaction c) step (i) and the crude product was instead purified by FCC eluting with MeOH (2-13%) in DCM. There were obtained 1.4 g of cream gum product. LC-MS (Method A), Rt=1.87 min, [M+H]^+=360.5.

[8] = Critical micellular concentration determination (Example 78); assay type: physicochemical; conditions: deionized water
Method: Stock solutions were prepared of known weight concentration (range spanning 0.005 wt %-5.000 wt %) of inventive surface-active compositions (by solution of the appropriate weight of example composition in deionized water). For reference, the surface tension of deionized water in the absence of a surface-active composition is 73 mN. […] The surface tensions of the solutions at the concentration of the CMC were also noted. Results are shown in table 10 and graphical results are depicted in FIG. 22.

Row | Compound | Maximum volume of lemongrass oil solubilized [1] [µL] | Time inspected by which the emulsion first appeared dispersed [3] [h] | Volume of foam after given time ([4]; 0 min) [cm^3] | Volume of foam after given time ([4]; 5 min) [cm^3] | Volume of foam after given time ([4]; 15 min) [cm^3] | Volume of foam after given time ([4]; 30 min) [cm^3] | Volume of foam after given time ([4]; 1 h) [cm^3] | Volume of foam after given time ([4]; 2 h) [cm^3] | Average time (for 3 mL to pass out of the stripette by gravity) [6] [s] | also measured
1 | CCCCCCCCCCO[C@@H]1O[C@H](CO)[C@@H](O)[C@H](O)[C@H]1O [Decyl glucoside, reference compound] | 2.5 | 24 | 12.0 | 12.0 | 11.8 | 11.5 | 11.5 | 11.0 | – | Resulting zein concentration solubilized (Zein): 1129 µg/mL; Maximum volume of preservative P12 solubilized [2]: 40 µL
2 | CCCCCCCCCCCCO[C@@H]1O[C@H](CO)[C@@H](O)[C@H](O)[C@H]1O [Dodecyl Glucoside, reference compound] | – | 12 | – | – | – | – | – | – | 4.0 | Volume of foam after given time ([5]; 0 min): 42.3 cm^3; Volume of foam after given time ([5]; 5 min): 42.3 cm^3; Volume of foam after given time ([5]; 15 min): 42.3 cm^3; Volume of foam after given time ([5]; 30 min): 42.3 cm^3; Volume of foam after given time ([5]; 1 h): 42.0 cm^3; Volume of foam after given time ([5]; 2 h): 42.0 cm^3
3 | CCCCCCCCCCCCCCN(C(C)=O)C1OC[C@@H](O)[C@H](O)[C@H]1O (stereo partly shown) [Example 12 composition, N-tetradecyl N-acetyl xylosylamine] | – | 1 | – | – | – | – | – | – | – | –
4 | CCCCCCCCCCCCN(C(C)=O)C1OC[C@@H](O)[C@H](O)[C@H]1O (stereo partly shown) [Example 13 composition, N-dodecyl N-acetyl xylosylamine] | 5.0 | 1 | – | – | – | – | – | – | – | Aqueous solubility (in words) [7]: only sparingly soluble
5 | CCCCCCCCN(C(C)=O)C1OC[C@@H](O)[C@H](O)[C@H]1O (stereo partly shown) [Example 14 composition, N-octyl N-acetyl xylosylamine] | 5.0 | 0.083 | – | – | – | – | – | – | 10.0 | –
6 | CCCCCCCCCCCCN(C(C)=O)C1O[C@H](CO)[C@@H](O[C@@H]2O[C@H](CO)[C@@H](O)[C@H](O)[C@H]2O)[C@H](O)[C@H]1O (stereo partly shown) [Example 23 composition, N-dodecyl N-acetyl cellobiosylamine] | – | – | 3.5 | 3.5 | 3.5 | 3.0 | 2.8 | 2.5 | – | Volume of foam after given time ([5]; 0 min): 38.5 cm^3; Volume of foam after given time ([5]; 5 min): 4.0 cm^3; Volume of foam after given time ([5]; 15 min): 4.0 cm^3; Volume of foam after given time ([5]; 30 min): 4.0 cm^3; Volume of foam after given time ([5]; 1 h): 3.0 cm^3; Volume of foam after given time ([5]; 2 h): 3.0 cm^3; Solution Surface tension at CMC [8]: 45 mN; CMC ([8]; from surface tension at 0.005-5.000 wt %): 0.03 wt %
7 | CCCCCCCCCCCCOS(=O)(=O)[O-].[Na+] [Sodium dodecyl sulfate, reference compound] | – | 1 | 15.0 | 15.0 | 15.0 | 15.0 | 15.0 | 14.0 | – | –
8 | O=C[C@H](O)[C@@H](O)[C@H](O)CO [Xylose, reference compound] | – | <0.083 | – | – | – | – | – | – | – | –
9 | Cocoamidopropyl betaine | – | – | – | – | – | – | – | – | 524.0 | –
10 | Lauryl glucoside | – | – | – | – | – | – | – | – | 1.9 | –
